EP2077274A1, “Synthetic analogs of human beta-defensins having antimicrobial, antiviral and chemotactic activity” (Ceinge Biotecnologie Avanzate s.c. a r.l., priority 2008, dated 2009)
No end group written: not given here.

What was measured:
[1] = test system: monocytes; test: Chemotaxis assay (leukocyte migration, calcein fluorescence); type: cell-based, human
Protocol: (§1) Preparation of leukocytes-Monocytes and neutrophils were isolated as described in the StemSep Cell Technical Manual (Stem Cell Technologies, Vancouver, Canada). Briefly, to obtain neutrophils, buffy coats were diluted 1:20 in NH4Cl supplemented with 2 mM EDTA and incubated on ice for 20 min. Cell suspensions were centrifuged for 10 min at 600 X g at room temperature with the brake off and washed three times with phosphate buffered saline (PBS) supplemented with 2% foetal bovine serum and 2 mM EDTA. Cell viability was assessed by analysis of light scatter properties, and cell count was performed using a logical gate strategy based on Trucount tubes (Becton-Dickinson, San Jose, CA, USA). Neutrophils were purified from lysed buffy coats using StemSep negative selection system. To this purpose, 100x10^6 mononuclear cells from lysed buffy coats were incubated with 100 µL of custom antibody cocktail for human granulocytes enrichment (Stem Cell Technologies) for 45 min on ice. In addition, cell suspensions were incubated with 60 µL of magnetic colloid for 30 minutes on ice. Finally, the samples were run through a 0.3-inch column matrix in a negative selection system in which the unwanted cells were immunomagnetically labelled and bound to the magnetic column. Neutrophils, after the separation, were collected in the column flowthrough without antibody bound to their surface. In order to obtain monocytes, human buffy coats were layered over a Ficoll-Paque density gradient and spun at 600 X g for 30 min with the brake off. The mononuclear cell-rich fractions were washed three times with PBS supplemented with 2% foetal bovine serum (FBS) and 2 mM EDTA. Cell viability was assessed by analysis of light scatter properties, and cell count was performed using a logical gate strategy based on Trucount tubes (Becton-Dickinson). A custom antibody cocktail for human monocyte enrichment (Stem Cells Technologies) was used for immunomagnetic negative selection of monocytes. Mononuclear cells were incubated as above described for neutrophils. Both neutrophils and monocytes were resuspended in 5.0 mL of RPMI-1640 (Sigma-Aldrich, St Louis, MO, USA) without phenol red containing 10% heat-treated FBS. Calcein AM (Molecular Probes, Eugene, OR, USA) was added to the cell suspensions (5.0 mL) at a concentration of 5 µg/mL and the cells were incubated for 30 min at 37°C. Cell suspensions were washed twice with PBS and then resuspended in RPMI-FBS to the desired concentration.
(§2) Measurement of leukocytes migration-The chemotaxis assay of monocytes and neutrophils (90-95% of purity) was performed in 96-well disposable chemotaxis chambers (Neuroprobe, Gaithersburg, MD, USA) using polyvinyl-pyrrolidone-free polycarbonate membranes with an […] pore size for monocytes and with a […] pore size for neutrophils. Chemotaxis was measured by fluorescence detection, using the calcein fluorescence signal. The fluorescence was read in a microplate fluorescence reader (Victor 3 1420 Multilabel Counter, Perkin Elmer) with excitation/emission wave-length settings of 485/530 nm. We calculated the migration index as the ratio between the sample mean fluorescence (after subtraction of the negative control mean fluorescence)/positive control mean fluorescence. Each assay was performed in quadruplicate.

[2] = test system: neutrophils; test: as above; type: cell-based, human
Protocol: as §1, §2

[3] = test system: HSV-1; test: HSV-1 infectivity plaque assay on Vero cell monolayers (co-exposure, virus pre-treatment, cell pre-exposure); type: cell-based; details: for % of infectivity: peptide 20 µM, mean and SD of 3 replicates
Protocol: Vero cells were grown in Dulbecco's modified Eagle's medium (DMEM) supplemented with 10% foetal calf serum. HSV-1 carrying a IacZ gene driven by the cytomegalovirus (CMV) IE-1 promoter to express beta-galactosidase was propagated as described (33). Peptides were dissolved in DMEM with serum and used at different concentrations. All experiments were conducted in parallel with scrambled peptides and no-peptide controls. […] Non-penetrated viruses were inactivated by citrate buffer at pH 3.0 after the 45 min incubation with cells at 37°C. The cells were then incubated for 48 h at 37°C in DMEM supplemented with carboxymethylcellulose (CMC). Monolayers were fixed, stained with 5-bromo-4-chloro-3-indolyl-beta-D-galactopyranoside (X-gal) and plaque numbers were scored. Experiments were performed in triplicate and the percentage of inhibition was calculated with respect to no-peptide control experiments. ii) For "virus pre-treatment" experiments, approximately 2 x 10^4 plaque forming units (PFU) of HSV-1 were incubated in the presence of 20 µM of peptides for 45 min at 37°C, then titrated on Vero cell monolayers. iii) For "cell pre-exposure" experiments, Vero cells were incubated with 20 µM of peptides for 30 min at 4°C. Peptides were removed, and cells were washed with phosphate-buffered saline before being infected with serial dilutions of HSV-1 and incubated for 45 min at 37°C.
Monolayers were exposed to different concentrations (10, 50, 100, 250 and 500 µM) of each peptide for 24 h, and cell viability was evaluated with the LDH assay. There was no significant difference between the viability of cells exposed to the peptides and that of cells exposed to control (data not shown). Thus, we evaluated the antiviral activity of wild type peptides and their analogs in: co-exposure experiments (cell + virus + peptide at zero time); virus pre-treatment (virus + peptide incubation before cell infection); and cell pre-exposure (cell + peptide incubation before virus infection). This would allow to evaluate if, and in which phase, the peptides could inhibit the virus infectivity.
For co-exposure experiments, we incubated the peptides on the monolayers of Vero cells together with the virus inoculum for 45 min before low pH treatment. The reduced form of wild-type hBD1 and hBD3 and analogs 1C, 1 N, 3C, 3N were used in all subsequent experiments. […] No control (peptide excluded) inhibited HSV-1 infectivity under similar experimental conditions.

[4] = test system: Escherichia coli ATCC 25922; test: Colony-forming unit (CFU) assay of antibacterial activity with NaCl dependence; type: cell-based; details: 200 mM NaCl compared to absence of salt
Protocol: (§3) Colony-forming unit (CFU) assay of the antibacterial activity of the peptides against P.aeruginosa ATCC (American Type Culture Collection, Manassas, VA, USA) 27853, Enterococcus faecalis ATCC 29212 and Escherichia coli ATCC 25922 was performed. The strains were grown in aerobic conditions in tryptic soy broth (Difco Laboratories, Detroit, MI, USA) at 37°C. Cells from exponential-phase cultures were centrifuged, washed and suspended to a density of 1 x 10^5 CFU/mL in sterile 10 mM potassium phosphate buffer, pH 7.4, and incubated in the presence of the peptides. The incubation time was 2 h at 37°C. […] For salt dependence assay, NaCl in a range of concentrations potentially present in the airway surface fluid of normal subjects and CF patients (33), i.e., 0, 50, 100 and 200 mM NaCl, were included in the incubation buffer. The cells were then diluted serially in the same buffer, spread on tryptone-yeast (Difco Laboratories) plates and the colonies were counted after 18 h at 37°C. Each assay was performed in triplicate. Bactericidal activity (mean and SD of three assays) is expressed as the ratio between colonies counted and the number of colonies on a control plate.

[5] = test system: P.aeruginosa ATCC 27853; test: as above; type: cell-based
Protocol: as §3

[6] = test system: Enterococcus faecalis ATCC 29212; test: as above; type: cell-based; details: 200 mM NaCl compared to absence of salt
Protocol: as §3

Substance: GIINTLQKYYCRVRGGRCAVLSCLPKEEQIGKCSTRGRKCCRRKK-OH (cysteines drawn unpaired) [hBD3 wt, reference compound]
- chemotactic activity, effect of NaCl ([1]; 200 mM NaCl): comparable to that obtained at 100 mM NaCl
- chemotactic activity, effect of NaCl ([1]; NaCl between 100 and 150 mM, p<0.001): significantly increased
- chemotactic activity compared to wild-type hBD1 ([1]; peptide 1.25 µM): significantly higher
- chemotactic activity, effect of NaCl ([2]; NaCl from 100 to 150 mM, p<0.001): significantly reduced
- chemotactic activity compared to wild-type hBD1 ([2]; peptide 1.25 µM): significantly lower activity
- % of infectivity ([3]; cell pre-exposure): 14.5±2.3%
- % of infectivity ([3]; co-exposure): 23.4±2.5%
- inhibition of HSV infectivity ([3]; co-exposure, peptide 50 µM, reduced form): 100%
- % of infectivity ([3]; virus pre-incubation): 45±1.5%
- antibacterial activity, effect of NaCl [4]: significantly inhibited
- antibacterial activity, effect of NaCl ([5]; peptide 2.5 µM, 50 mM NaCl versus 0 mM NaCl): unaffected
- antibacterial activity, effect of NaCl ([5]; peptide 2.5 µM, 100 mM NaCl versus 0 mM NaCl, p<0.01): slightly inhibited
- antibacterial activity, effect of NaCl ([5]; peptide 2.5 µM, 200 mM NaCl versus 0 mM NaCl, p<0.001): greatly inhibited
- antibacterial activity, effect of NaCl ([5]; peptide 12.5 µM, 200 mM NaCl versus 0 mM NaCl, p<0.001): strongly inhibited
- antibacterial activity, effect of NaCl [6]: significantly inhibited
